# Earlier results as cited in patent US9374973B2, “Grass endophytes” (GRASSLANZ TECHNOLOGY LTD, priority 2003, dated 2016).
# What was measured:
# [1] = system: grazing sheep, cattle, deer and horses
# [2] = system: black beetle (Heteronychus arator); details: in vivo
# [3] = system: Argentine stem weevil (Listronotus bonariensis); details: in vivo
compound,measurement,setting,value
CC(C)[C@H]1C(=O)N2CCC[C@H]2[C@]2(O)O[C@@](C)(NC(=O)[C@@H]3C=C4c5cccc6[nH]cc(c56)C[C@H]4N(C)C3)C(=O)N12 [Ergovaline],Concentration in ryegrass pastures likely to elicit hyperthermia and depressed prolactin responses,"[1]; bovine, in vivo",above 0.5 ppm
same,Effect on black beetle,[2],deterrent
CC(C)=C[C@H]1O[C@H]2[C@H]3O[C@@]34[C@H](CC[C@@]3(C)[C@@]4(O)CC[C@H]4Cc5c([nH]c6ccc7c(c56)C[C@@H]5[C@@H](C7=O)C(C)(C)OC5(C)C)[C@@]43C)O[C@@H]2C(C)(C)O1 [Lolitrem B],Herbage concentration that may result in clinical symptoms of ryegrass staggers,"[1]; grazing sheep, cattle, deer and horses",> 2 ppm of herbage dry matter
Cn1c(CCCN=C(N)N)cn2cccc2c1=O [Peramine],Effect on Argentine stem weevil,[3],feeding deterrent
lolitrem,Effect on Argentine stem weevil,[3],toxic
